Key:
Test in all cases: In Vitro Enzyme Inhibition Assay
[1] = biological target: T1, Cathepsin K (Homo sapiens, UniProt P43235); conditions: pH 5.5; 22 °C
T1 sequence (P43235 whole entry): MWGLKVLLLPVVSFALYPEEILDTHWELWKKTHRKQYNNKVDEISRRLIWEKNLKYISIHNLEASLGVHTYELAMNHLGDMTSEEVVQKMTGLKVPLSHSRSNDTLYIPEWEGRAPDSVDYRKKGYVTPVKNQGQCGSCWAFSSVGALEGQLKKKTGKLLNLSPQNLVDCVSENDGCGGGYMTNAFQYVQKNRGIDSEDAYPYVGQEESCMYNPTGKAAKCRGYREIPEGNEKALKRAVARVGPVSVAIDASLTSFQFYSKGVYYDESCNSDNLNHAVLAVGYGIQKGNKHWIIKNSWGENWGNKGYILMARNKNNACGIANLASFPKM
Experimental: (§1) Assays were carried out in the presence of variable concentrations of test compound. Reactions were initiated by addition of enzyme to buffered solutions of inhibitor and substrate. Product fluorescence (excitation at 360 nm, emission at 460 nm) was monitored with a fluorescent plate reader.

[2] = biological target: Cathepsin S (Homo sapiens, UniProt P25774)
Cathepsin S, sequence (P25774 whole entry): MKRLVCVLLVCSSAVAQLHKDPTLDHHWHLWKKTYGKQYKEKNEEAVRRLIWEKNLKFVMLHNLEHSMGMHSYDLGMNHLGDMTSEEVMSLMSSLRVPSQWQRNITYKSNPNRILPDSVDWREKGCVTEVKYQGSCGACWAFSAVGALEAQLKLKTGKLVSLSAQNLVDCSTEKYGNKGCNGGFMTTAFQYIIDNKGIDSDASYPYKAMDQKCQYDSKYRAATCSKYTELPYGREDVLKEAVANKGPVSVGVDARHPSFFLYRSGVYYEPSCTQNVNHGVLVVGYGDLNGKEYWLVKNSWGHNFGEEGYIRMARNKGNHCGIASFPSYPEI
Experimental: as §1

[3] = biological target: Procathepsin L (Homo sapiens, UniProt P07711)
Procathepsin L, sequence (P07711 whole entry): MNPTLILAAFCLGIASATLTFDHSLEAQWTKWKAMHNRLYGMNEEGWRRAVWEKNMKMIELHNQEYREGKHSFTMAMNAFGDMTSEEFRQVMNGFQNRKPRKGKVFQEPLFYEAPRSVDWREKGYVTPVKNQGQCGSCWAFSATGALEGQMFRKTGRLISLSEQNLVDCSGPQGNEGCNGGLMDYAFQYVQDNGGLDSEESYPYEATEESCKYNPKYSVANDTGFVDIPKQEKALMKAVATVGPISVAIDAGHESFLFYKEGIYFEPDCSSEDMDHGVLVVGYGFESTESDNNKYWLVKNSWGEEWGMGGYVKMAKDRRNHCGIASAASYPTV
Experimental: as §1

## CN[C@@H](CC(C)C)C(=O)N1CC(=O)C(NC(=O)[C@H](CC(C)C)NC(=O)OCc2ccccc2)C1 (stereo partly drawn) [[(2S)-1-{3-[(2S)-2-{[(benzyloxy)carbonyl]amino}-4-methylpentanamido]-4-oxopyrrolidin-1-yl}-4-methyl-1-oxopentan-2-yl](methyl)azanium chloride]
[1]
  Ki: 77 nM
[2]
  Ki: 290 nM
[3]
  Ki: 400 nM
